According to patent US20220177954A1, “NUCLEIC ACID PROBES” (CYTOTEST INC., priority 2020, published 2022):

What was measured:
[1] = tested on: PC-3 cell lines wt, chd1 ko1, chd1 ko2; test: Viability cell proliferation assay (PrestoBlue) in PC-3 wt versus chd1 ko isogenic cell lines; type: cell-based, human; conditions: CHD1 deficient (CRISPR-Cas9 knock out) PC-3 cells versus wild type, 24 hrs exposure, then 5 days drug-free
Description: PC-3 prostate cell line was purchased from ATCC® and grown in RPMI 1640 (Gibco) supplemented with 10% FBS (Gibco). RPE1-CHD1 knock out cells were provided by Alan D. D'Andrea's laboratory. Cells were incubated at 37° C. in 5% CO2, and regularly tested for Mycoplasma spp. contamination.
Full length SpCas9 ORF was introduced in PC-3 cell population by Lentiviral transduction using lentiCas9-Blast (Addgene #52962) construction. After antibiotics (blasticidin) selection, survival populations were single cell cloned, isogenic cell lines were generated and tested for Cas9 activity by cleavage assay.
CHD1 was targeted in stable CRISPR-Cas9 expressor isogenic PC-3 cell line using guide RNA CHD1_ex2_g1 (caccg[…]), resulting in PC-3 chd1 ko 1, and chd1 ko 2 homozygous loss cell lines.
Exponentially growing PC-3 cell lines wt, chd1 ko1, chd1 ko2 were seeded in 96-well plates (1000 cells/well) and incubated for 36 hrs to facilitate cell attachment. Identical cell numbers of seeded parallel isogenic lines were verified by the Celigo Imaging Cytometer after attachment.
Cells were exposed to Talazoparib (Selleckchem), Olaparib (MedChemExpress) and Bleomycin sulfate (Fisher Scientific) for 24 hrs, then kept in drug-free fresh media for 5 days until cell growth was determined by the addition of PrestoBlue (Invitrogen) and incubated for 2.5 hrs. Cell viability was determined by using the BioTek plate reader system. Fluorescence was recorded at 560 nm/590 nm, and values were calculated based on the fluorescence intensity. IC50 values were determined by using the AAT Bioquest IC50 calculator tool. P-values were calculated using student's t-test. P-values <0.05 were considered statistically significant.

CHD1 null cells = conditions: cited from earlier work

Row | Compound | increase in sensitivity upon CHD1 deletion [1] | olaparib sensitivity of CHD1-deficient cancer cells (CHD1 null cells)
1 | Cn1ncnc1[C@H]1c2n[nH]c(=O)c3cc(F)cc(c23)N[C@@H]1c1ccc(F)cc1 [talazoparib, Talazoparib] | 15-20 fold | 
2 | Bleomycin sulfate | 5 fold | 
3 | O=C(c1cc(Cc2n[nH]c(=O)c3ccccc23)ccc1F)N1CCN(C(=O)C2CC2)CC1 [olaparib, Olaparib] | approximately 5 fold | relatively mild
